From patent publication US6362197B1, “Compositions and method for treatment of cough” (Cardiome Pharma Corp., priority 1998, dated 2002)

Assays:
[1] = tested on: capsaicin aerosol-induced cough; experiment: Capsaicin aerosol-induced cough in conscious guinea pigs, 5 min aerosol pre-treatment; type: in vivo, guinea pig; details: for Reduction of number of capsaicin-induced cough responses compared with matched vehicle: 5 minute pre-treatment; for Change of mean latency of cough onset: capsaicin-induced cough
[2] = tested on: citric acid-induced cough responses; experiment: Citric acid aerosol-induced cough in conscious guinea-pigs, 5 min aerosol pre-treatment; type: in vivo, guinea-pig; details: for Mean latency of cough: time to onset of first cough after initiation of citric acid aerosol: 5 min pre-treatment; for Mean latency of cough: time to onset of first cough after initiation of citric acid aerosol / Total coughs: number of coughs over 15 min following initiation of 1M citric acid aerosol: mean ± SEM; for Inhibition of cough responses compared with matched vehicle pre-treated guinea pigs: Example 2, aerosol pre-treatment immediately before citric acid exposure; for Anti-tussive activity (in words): Example 2, experiment similar to Example 1
Text: Male albino Dunkin-Hartley strain guinea-pigs (weight 300-400 g) were supplied by Harlan UK Ltd., Bicester, Oxon, UK.
The method used was modified from that described by Adcock J. J., Schneider C. and Smith T. W., “Effects of Morphine and a Novel Opioid Pentapeptide BW443C, on Cough, Nociception and Ventilation in the Unanaesthetized Guinea-pig”, Br. J. Pharmacol., 93, 93-100 (1988). Individual conscious guinea-pigs were placed unrestrained into a sealed purpose built perspex exposure chamber (3,000 cm^3 volume) and allowed to acclimatize prior to aerosol administration.
Cylinder air was introduced into the exposure chamber at a flow rate of 1 liter/min, maintained by a needle valve and monitored by a rotameter. From the rotameter the air passed through the cup of an ultrasonic nebulizer (DeVilbis UltraNeb 2000) which was used to generate aerosols of drug or citric acid at 0.15 ml/min. A Fleisch pneumotachograph, connected to a differential pressure transducer (Grass model PT5) was attached to the outflow from the exposure chamber and provided a measurement of airflow from the chamber. The differential pressure transducer was connected to a Grass polygraph from which a hard copy record was produced. The output from the polygraph was directed to a computerized data acquisition system (Poh-Ne-Mah) for real time recording of data. A tie-clip microphone was placed in the exposure chamber and connected via a pre-amplifier to a loudspeaker output to provide the observer with an audio monitor of responses.
Cough responses were induced by exposure to an aerosol of citric acid (1M) for 10 minutes. Animals were continuously monitored by trained observer, and the number of coughs were counted during a 15 minute period from commencement of the citric acid aerosol administration.
The three types of response were differentiated primarily by sound and visual observation. […] Data recorded for individual guinea-pigs on the Poh-Ne-Mah system was stored on an optical disk. Each cough was marked on the Grass polygraph paper trace, and from these record numbers, frequency and time of onset of coughs were determined. The cough response was defined by a characteristic coughing sound and behavior, associated with a marked biphasic pressure change.
Quantities of drugs were weighed out and dissolved in a vehicle. Equal volumes were aliquotted into sample tubes before being passed, together with another sample tube containing the same volume of vehicle, to an independent observer for coding. Pre-treatments were matched by concentration together with a vehicle control group. Five guinea-pigs were randomly allocated to each treatment group. […] The sequence of pre-treatment administration was determined according to a 4×4 Latin Square design.
Data presented as the mean ±SEM number of coughs produced by individual guinea-pigs within each group during the 15 minute observation period or mean±SEM latency of cough were analyzed using one way analysis of variance to compare mean responses between matched groups of animals (doses) and between unmatched groups (treatments) followed by the Tukey-Kramer multiple comparison test where appropriate.

[3] = tested on: citric acid-induced cough responses; experiment: Citric acid-induced cough responses in ozone-exposed conscious rabbits; type: in vivo, rabbit; details: rabbits exposed to ozone 3 ppm 1 hour, aerosol 10 mg/ml, citric acid 1.6 M, 10 minute count; vehicle 22.0±5.1
Experimental: Investigation of Antitussive Activity of Aerosolized Compound 1 on Citric Acid-induced Cough Responses in Conscious Rabbits
Twenty-two male New Zealand white rabbits were randomly allocated to either of two groups of 11 rabbits.
Pairs of rabbits (control versus test) were placed in individual exposure chambers with an airflow of 5 liter/min through the chambers.
Each rabbit was exposed to ozone (3 ppm) for 1 hour.
The rabbits were then immediately exposed to aerosols of either vehicle (chamber 1) or Compound 1 (10 mg/ml, chamber 2) at a nebulization rate of 0.9 ml/min.
Cough responses were induced with citric acid aerosol (1.6 M).
Coughs were counted during the 10 minute exposure to citric acid.

[4] = tested on: citric acid-induced cough responses; experiment: Duration of anti-tussive effect against citric acid-induced cough, pre-treatment at various times; type: in vivo, guinea pig; details: 10 mg/ml aerosol
Experimental: Test agents or vehicle were administered as aerosol pre-treatments (10 mg/ml, 5 minute duration) at 5 minutes, 30 minutes, 1 hour, 2 hours and 4 hours prior to induction of cough responses by citric acid aerosol.

[5] = tested on: citric acid-induced cough responses; experiment: Therapeutic aerosol treatment after induction of cough by citric acid aerosol; type: in vivo, guinea pig; details: aerosol 10 mg/ml for 5 min, given 2 minutes after citric acid exposure began
Experimental: Vehicle or test agents were administered as aerosols (10 mg/ml; 5 minute duration) 2 minutes after exposure to citric acid aerosol began. Cough responses were recorded during a 15 minute observation period (t=0 to t=15 min.) from initiation of citric acid exposure.

In the case of CCN(CC)CC(=O)Nc1c(C)cccc1C [Lidocaine, lidocaine, reference compound], the “Reduction of number of capsaicin-induced cough responses compared with matched vehicle” value (“Reduction of number … with matched vehicle” for short) ([1]; aerosol 10 mg/ml) is reported as 42.2%, the “Change of mean latency of cough onset” value ([1]; aerosol 10 mg/ml) is reported as 1.2 fold and the “Reduction of number … with matched vehicle” value ([1]; aerosol 30 mg/ml) is reported as 10.3%. The “Change of mean latency of cough onset” value ([1]; aerosol 30 mg/ml) was 0.8 fold.
For C[N+](C)(CC(=O)Nc1ccccc1)CC(=O)Nc1ccccc1.[Cl-] [Compound 1, N,N-Bis-(phenylcarbamoylmethyl)dimethylammonium chloride], the melting point was 177 to 178 °C, the “Reduction of number … with matched vehicle” value ([1]; aerosol 10 mg/ml) was 25% and the “Change of mean latency of cough onset” value ([1]; aerosol 10 mg/ml) was “no significant effect”. The “Reduction of number … with matched vehicle” value ([1]; aerosol 30 mg/ml) was 76.9%, the “Change of mean latency of cough onset” value ([1]; aerosol 30 mg/ml) was 2.1 fold and the “Percentage reduction of the cough response compared with matched vehicle control groups” value (from here on “Percentage reduction”) ([2]; aerosol conc. 0.1 mg/ml) was “(25.3%)”. The “Mean latency of cough: time to onset of first cough after initiation of citric acid aerosol” value (shortened to “Mean latency of cough: time”) ([2]; aerosol conc. 0.1 mg/ml) was 88 ± 6 s, the “Total coughs: number of coughs over 15 min following initiation of 1M citric acid aerosol” value ([2]; aerosol conc. 0.1 mg/ml) was 22.4 ± 6.0 and the “Cough frequency (in words)” value ([2]; aerosol conc. 1.0 mg/ml) was “frequency of coughs was reduced”. For the same compound, the “Percentage reduction” value ([2]; aerosol conc. 1.0 mg/ml) was “(40.4%)”, the “Mean latency of cough: time” value ([2]; aerosol conc. 1.0 mg/ml) was 103 ± 11 s and the “Total coughs: number of coughs over 15 min following initiation of 1M citric acid aerosol” value ([2]; aerosol conc. 1.0 mg/ml) was 16.8 ± 4.0. The “Guinea-pigs in the group with cough responses completely inhibited” value ([2]; aerosol conc. 10 mg/ml) was 4 of the 5, the “Latency of cough onset (in words)” value ([2]; aerosol conc. 10 mg/ml) was “prolonged the latency of cough onset” and the “Percentage reduction” value ([2]; aerosol conc. 10 mg/ml) was “(97.6%)”. For the same compound, the “Sneezing in animals that did not cough” value ([2]; aerosol conc. 10 mg/ml) was “marked absence of sneezing”, the “Mean latency of cough: time” value ([2]; aerosol conc. 10 mg/ml) was 778 ± 137^-- seconds and the “Total coughs: number of coughs over 15 min following initiation of 1M citric acid aerosol” value ([2]; aerosol conc. 10 mg/ml) was 0.6 ± 0.6^--. For the same compound, the “Number of citric acid-induced cough responses, mean ± SEM” value [3] was 2.7±0.9 coughs, the “Inhibition of cough responses” value ([4]; pre-treatment 30 minutes before citric acid) was 63% and the “Inhibition of cough responses” value ([4]; pre-treatment 60 minutes before citric acid) was 60.7%. For the same compound, the “Inhibition of cough responses” value ([4]; pre-treatment 2 hours before citric acid) was 44.0%, the “Reduction in mean number of citric acid-induced cough responses” value ([4]; pre-treatment 4 hours before citric acid) was 15% and the “Inhibition of cough responses compared with matched vehicle pre-treated guinea pigs” value ([4]; pre-treatment immediately before citric acid exposure) was 84.9%. For the same compound, the “Increase of latency of cough onset” value ([4]; pre-treatment immediately prior to citric acid exposure) was 3.3 fold, the “Inhibition of number of cough responses between t=2 and t=10 minutes” value [5] was 70.8% and the “Inhibition of total number of cough responses during the 15 minute observation period compared with matched vehicle” value ([5]; t=0 to t=15 min) was 63.8%.
For Cc1cccc(C)c1NC(=O)C[N+](C)(C)C.[Cl-] [Compound 2, N-(2,6-dimethylphenylcarbamoylmethyl) trimethylammonium chloride], the “Inhibition of cough responses compared with matched vehicle pre-treated guinea pigs” value [2] was “over 80%” and the “Anti-tussive activity (in words)” value [2] was “effective”.
In the case of CC[N+](CC)(CC)CC(=O)Nc1c(C)cccc1C.[Cl-] [Compound 3, N-(2,6-dimethylphenylcarbamoylmethyl) triethylammonium chloride], the “Inhibition of cough responses compared with matched vehicle pre-treated guinea pigs” value [2] is reported as “over 70%” and the “Anti-tussive activity (in words)” value [2] is reported as “effective”.
